Results from US6753176B2, “Aggrecan degrading metallo proteases” (Bristol-Myers Squibb Company, priority 1997, dated 2004).
“Also recorded” adds a separate entry of the source.

Key:
ADMP = ADMP (aggrecanase) activity: cleavage of purified bovine aggrecan monomers at Glu373-Ala374, BC-3 neoepitope antibody Western; format: biochemical
Description: ADMPs were detected at this point by their ability to cleave purified bovine aggrecan monomers isolated from bovine nasal cartilage by the following procedure: Aggrecan was extracted from the cartilage by stirring at 4° C. for 48 hours in 10 volumes of 4M guanidine-HCl in 0.05 M sodium acetate, pH 5.8, containing the protease inhibitors, 0.01M EDTA (EDTA is ethylenediaminetetraacetic acid), 0.1M 6-aminohexanoic acid, 2 mM PMSF and 0.05M benzamidine HCl. Aggrecan monomers were isolated by equilibrium density gradient centrifugation in cesium chloride [Hascall, V. C. and Sajdera, S. W. (1969) J. Biol. Chem. 244, 2384-2396.] and the bottom of this gradient (d>1.54 g/ml) containing the aggrecan monomers, was dialyzed at 4° C. against water and lyophilized.
These aggrecan monomers (500 nM) were incubated at 37° C. for at least 4 hr with ADMPs eluted from the Macro S support column in a final volume of 200 ul in Buffer B (Buffer B contains 50 mM Tris, pH 7.6, containing 0.1 M NaCl and 10 mM CaCl2), quenched with 20 mM EDTA and analyzed for aggrecan fragments produced exclusively by cleavage at the Glu^373-Ala^374 bond within the aggrecan core protein using the monoclonal antibody, BC-3 (Hughes, C. E., et al., Biochem. J. 306:799-804, 1995). This antibody recognizes aggrecan fragments with the N-terminal sequence A^374RGSVIL . . . , generated upon cleavage by ADMPs. The BC-3 antibody recognizes this neoepitope only when it is the N-terminus and not when it is present internally within aggrecan fragments or within the intact aggrecan core protein. […]
After digestion, the samples were precipitated with 5 volumes of acetone and reconstituted in an appropriate volume of SDS-PAGE sample buffer, loaded on 4-12% gradient gels and then separated by SDS-PAGE under non reducing conditions, transferred overnight to nitrocellulose and immunolocated with 1:1000 dilution of the monoclonal antibody BC-3. […] BC-3-reactive aggrecan fragments were then quantified by scanning densitometry.

[1] = test system: matrix metalloproteinases; test: Inhibition of matrix metalloproteinases; format: biochemical
ADMP-1 = target: T1, ADMP-1 (Bos taurus, UniProt Q9TT93); test: Binding of 67 kDa ADMP-1 doublet to aggrecanase-inhibitor hydroxamate affinity resin in the presence of inhibitor; parameters: species or system bovine
T1 construct: from tissue; host or cells: conditioned medium of IL-1-stimulated bovine nasal cartilage, purified over Macro S, gelatin-agarose and TIMP-1/protein A
T1 sequence (Q9TT93 213-839): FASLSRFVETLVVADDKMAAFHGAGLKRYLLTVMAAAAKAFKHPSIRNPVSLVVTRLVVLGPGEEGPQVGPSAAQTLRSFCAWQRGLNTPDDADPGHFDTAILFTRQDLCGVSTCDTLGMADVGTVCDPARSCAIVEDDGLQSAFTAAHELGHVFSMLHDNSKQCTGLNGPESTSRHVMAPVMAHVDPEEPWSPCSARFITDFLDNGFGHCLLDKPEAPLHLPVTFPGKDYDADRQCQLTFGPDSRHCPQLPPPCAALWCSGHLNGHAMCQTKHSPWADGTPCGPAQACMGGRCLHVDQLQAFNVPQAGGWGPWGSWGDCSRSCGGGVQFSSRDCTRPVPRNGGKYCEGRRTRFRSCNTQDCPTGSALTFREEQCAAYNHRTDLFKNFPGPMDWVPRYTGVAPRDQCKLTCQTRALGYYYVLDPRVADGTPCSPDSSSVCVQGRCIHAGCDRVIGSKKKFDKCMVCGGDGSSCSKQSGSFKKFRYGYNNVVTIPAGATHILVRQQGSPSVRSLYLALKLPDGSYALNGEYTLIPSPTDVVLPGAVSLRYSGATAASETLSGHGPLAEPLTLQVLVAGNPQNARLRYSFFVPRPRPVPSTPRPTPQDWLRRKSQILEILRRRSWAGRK
Description: An ADMP-inhibitor hydroxamate affinity resin was produced in the following manner. POROS 20-NH perfusive chromatographic media (Perseptive Biosystems), a highly crosslinked poly(styrene divinylbenzene) polymer, was mixed overnight with four equivalents of Fmoc-beta-alanine, four equivalents HBTU (O-Benzotriazole-N,N,N′,N′-tetramethyl-uronium hexafluorophosphate), and eight equivalents DIEA (N,N diisopropylethylamine) in DMF (dimethylformamide). The resin was rinsed several times with DMF, then the FMOC group was removed with 20% piperidine/DMF. This coupling/deprotecting scheme was repeated three more times, resulting in four beta-alanine residues coupled to the resin. After the final piperidine deprotection, 1.5 equivalents of a t-butyl protected hydroxamic acid capable of inhibiting ADMP activity was coupled with 1.5 equivalents HBTU and 3 equivalents DIEA in DMF. After rinsing with DMF and CH2Cl2, the t-butyl group was removed by mixing overnight with TFA (trifluoroacetic acid), leaving the hydroxamic acid. The resin was thoroughly rinsed with CH2Cl2 and dried under vacuum.
The eluate from the protein A column was neutralized with 1 M Tris base to pH 7.5 and then incubated for 2 hours with the aggrecanase-inhibitor hydroxamate resin at a ratio of 1 mg resin for every 1 ml of eluate. […]

| Molecule | inhibition of ADMP activity (ADMP) | inhibition of matrix metalloproteinases [1] | binding of 67 kDa ADMP-1 to the affinity resin (ADMP-1; compound present during affinity purification) | binding of 67 kDa ADMP-1 doublet to aggrecanase-inhibitor hydroxamate resin (ADMP-1; 10 uM compound included during affinity purification) |
| --- | --- | --- | --- | --- |
| CNC(=O)[C@H]1CCCNN1C(=O)[C@@H](CC(C)C)[C@@H](C)C(=O)NO [Compound A, N3-methyl-(3R)-2-[(2S)-2-[(1R)-2-(hydroxyamino)-1-methyl-2-oxoethyl]-4-methylpentanoyl]hexahydro-3-pyridazinecarboxamide] | ineffective; also recorded: inactive | broad spectrum inhibitor; also recorded: potent inhibitor | not affected |  |
| tissue inhibitor of metalloproteinases-1 [TIMP-1] | inhibited |  |  |  |
| CNC(=O)[C@@H]1CCCCNC(=O)CC[C@H](C(=O)NO)[C@H](CC(C)C)C(=O)N1 [Compound B, (2S,11S, 12S)-12-isobutyl-2-[(methylamino)carbonyl]-11[(hydroxylamino)carbonyl]-8,13-dioxo-1,7-diazacyclotridecane] | potent ADMP inhibitor |  |  | blocked |
